For one experiment, the system named is human A549 cells. The experiment can be described thus: Inhibition test of PGE2 production using human A549 cells. In kind it is cell-based. The following applies: IL-1β stimulated A549 cells, 24 h, PGE2 by HTRF, read-out: A549 cell inhibition of PGE2 production IC50. The method, boiled down:
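PGE2 (HTRF) and PGF2a (EIA) were quantified in medium after 24 h, 37°C IL-1β stimulation (5 ng/well) of human A549 cells that had received test compound 60 min beforehand (0.1% DMSO, 3% FBS RPMI). IC50 relative to the window between IL-1β-stimulated and unstimulated controls.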

The target in the next experiment is human mPGES-1 (Homo sapiens (Human), UniProt O14684). Description: mPGES-1 inhibitory activity test. In kind it is biochemical. The settings on record: for IC50: microsomes of CHO-K1 cells expressing human mPGES-1, PGH2 1 μM, PGE2 by HTRF, read-out: mPGES-1 inhibition (IC50 nM). The method, boiled down:
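PGE2 formation was quantified by HTRF and reported as percent inhibition at 10 and 100 nM compound or as IC50. The 60-second reaction at 4° C used 1 μM PGH2, after a 20-minute 4° C preincubation of compound (1% DMSO final) with glutathione-supplemented (2.5 mM, pH 7.4) microsomes. The microsomes were from transiently transfected CHO-K1 cells expressing human mPGES-1.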
A general note: TR-FRET usually uses a lanthanide donor and a delayed reading to cut background.

Counter-ions that a name gives are not always drawn.

human mPGES-1, sequence (O14684 whole entry): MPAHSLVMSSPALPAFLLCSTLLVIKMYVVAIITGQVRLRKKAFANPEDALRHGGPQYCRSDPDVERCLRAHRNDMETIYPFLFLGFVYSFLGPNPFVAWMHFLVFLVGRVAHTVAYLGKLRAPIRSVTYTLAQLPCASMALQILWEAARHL

Consider `CC(C)(C)C(=O)NCc1ccc(Cl)c(C(=O)Nc2cccc3c2cnn3-c2cscn2)c1` [Example 83, 2-Chloro-5-{[(2,2-dimethylpropanoyl)amino]methyl}-N-[1-(1,3-thiazol-4-yl)-1H-indazol-4-yl]benzamide], for which the values for the IC50 in the experiment with human A549 cells and on human mPGES-1 were 5.3 nM and 1.5 nM, respectively.
As to `COC(C)(C)c1ccc(-n2ncc3c(NC(=O)c4cc(CNC(=O)C(C)(C)C)ccc4Cl)cccc32)cn1` [Example 84, 2-Chloro-5-{[(2,2-dimethylpropanoyl)amino]methyl}-N-{1-[6-(2-methoxypropan-2-yl)pyridin-3-yl]-1H-Indazol-4-yl}benzamide hydrochloride], the IC50 (in general, the concentration that inhibits the measured activity by half) in the experiment with human A549 cells is 4.9 nM; on human mPGES-1 it was 0.8 nM.
For the molecule `CC(C)(C)C(=O)NCc1ccc(Cl)c(C(=O)Nc2cccc3c2cnn3-c2ccc(C(C)(C)F)nc2)c1` [Example 85, 2-Chloro-5-{[(2,2-dimethylpropanoyl)amino]methyl}-N-{1-[6-(2-fluoropropan-2-yl)pyridin-3-yl]-1H-indazol-4-yl}benzamide], the IC50 in the experiment on human A549 cells was 6 nM; on human mPGES-1, 8.6 nM.
In the same order, the values of `CCOCc1ccc(-n2ncc3c(NC(=O)c4cc(CNC(=O)C(C)(C)C)ccc4Cl)cccc32)cn1` [Example 86, 2-Chloro-5-{[(2,2-dimethylpropanoyl)amino]methyl}-N-{1-[6-(ethoxymethyl)pyridin-3-yl]-1H-indazol-4-yl}benzamide hydrochloride] are 101 nM and 15.7 nM.
In the same order, the values of `Cc1ccc(-n2ncc3c(NC(=O)c4cc(CNC(=O)C(F)(F)F)ccc4Cl)cccc32)cn1` [Example 87, 2-Chloro-N-[1-(6-methylpyridin-3-yl)-1H-indazol-4-yl]-5-{[(trifluoroacetyl)amino]methyl}benzamide hydrochloride] are 72 nM and 4.7 nM.
Turning to `COc1cccc(Cn2ncc3c(NC(=O)c4cc(CNC(=O)C(C)(C)C)ccc4Cl)cccc32)c1` [Example 89, 2-Chloro-5-{[(2,2-dimethylpropanoyl)amino]methyl}-N-[1-(3-methoxybenzyl)-1H-indazol-4-yl]benzamide], the IC50 with human A549 cells was found to be 20.7 nM; at human mPGES-1, 3.5 nM.
Take `COc1ccccc1Cn1ncc2c(NC(=O)c3cc(CNC(=O)C(C)(C)C)ccc3Cl)cccc21` [Example 90, 2-Chloro-5-{[(2,2-dimethylpropanoyl)amino]methyl}-N-[1-(2-methoxybenzyl)-1H-indazol-4-yl]benzamide]: the IC50 in the experiment with human A549 cells was 17.7 nM; at human mPGES-1 it was 2.2 nM.
`Cc1cc(C)c(Cn2ncc3c(NC(=O)c4cc(CNC(=O)C(C)(C)C)ccc4Cl)cccc32)c(C)c1` [Example 91, 2-Chloro-5-{[(2,2-dimethylpropanoyl)amino]methyl}-N-[1-(2,4,6-trimethylbenzyl)-1H-indazol-4-yl]benzamide]: the results for the IC50 in the experiment with human A549 cells and at human mPGES-1 were 5.1 nM and below 1 nM, respectively.
In the same order, the values of `CC(C)(C)C(=O)NCc1ccc(Cl)c(C(=O)Nc2cccc3c2cnn3Cc2ccc(C(F)(F)F)cc2)c1` [Example 92] are 4.2 nM and 5.4 nM.
In the same order, the values of `CC(C)(C)C(=O)NCc1ccc(Cl)c(C(=O)Nc2cccc3c2cnn3Cc2cccc(C(F)(F)F)c2)c1` [Example 94, 2-Chloro-5-{[(2,2-dimethylpropanoyl)amino]methyl}-N-{1-[3-(trifluoromethyl)benzyl]-1H-indazol-4-yl}benzamide] are 9.2 nM and 10 nM.
For the molecule `CC(C)(C)C(=O)NCc1ccc(Cl)c(C(=O)Nc2cccc3c2cnn3CCc2ccccc2)c1` [Example 95, 2-Chloro-5-{[(2,2-dimethylpropanoyl)amino]methyl}-N-[1-(2-phenylethyl)-1H-indazol-4-yl]benzamide], the figures for the IC50 in the experiment with human A549 cells and at human mPGES-1 were 2.7 nM and 1.2 nM, respectively.
For `CC(C)(C)C(=O)NCc1ccc(Cl)c(C(=O)Nc2cccc3c2cnn3C2CCCC2)c1` [Example 97, 2-Chloro-N-(1-cyclopentyl-1H-indazol-4-yl)-5-{[(2,2-dimethylpropanoyl)amino]methyl}benzamide], the IC50 in the experiment with human A549 cells came out at 5.3 nM; at human mPGES-1, 0.7 nM.
Regarding `CC(C)(C)C(=O)NCc1ccc(Cl)c(C(=O)Nc2cccc3c2cnn3C2CCCCC2)c1` [Example 98, 2-Chloro-N-(1-cyclohexyl-1H-indazol-4-yl)-5-{[(2,2-dimethylpropanoyl)amino]methyl}benzamide], the IC50 in the experiment with human A549 cells is 1.6 nM; on human mPGES-1 it was 9 nM.
As to `CC(C)(C)C(=O)NCc1ccc(Cl)c(C(=O)Nc2cccc3c2cnn3CC2CCC2)c1` [Example 99, 2-Chloro-N-[1-(cyclobutylmethyl)-1H-indazol-4-yl]-5-{[(2,2-dimethylpropanoyl)amino]methyl}benzamide], the IC50 worked out at 4.1 nM in the experiment with human A549 cells and 1.3 nM at human mPGES-1.
Turning to `CC(C)(C)C(=O)NCc1ccc(Cl)c(C(=O)Nc2cccc3c2cnn3CC2CCCCC2)c1` [Example 100, 2-Chloro-N-[1-(cyclohexylmethyl)-1H-indazol-4-yl]-5-{[(2,2-dimethylpropanoyl)amino]methyl}benzamide], the IC50 stood at 1.9 nM with human A549 cells and 1 nM at human mPGES-1.
In the same order, the values of `CC(C)(C)C(=O)NCc1ccc(Cl)c(C(=O)Nc2cccc3c2cnn3CCCc2ccccc2)c1` [Example 101, 2-Chloro-5-{[(2,2-dimethylpropanoyl)amino]methyl}-N-[1-(3-phenylpropyl)-1H-indazol-4-yl]benzamide] are 8.1 nM and 4.7 nM.
Turning to `CC(C)n1ncc2c(NC(=O)c3cc(CNC(=O)C(C)(C)C)ccc3Cl)cccc21` [Example 102, 2-Chloro-5-{[(2,2-dimethylpropanoyl)amino]methyl}-N-[1-(propan-2-yl)-1H-indazol-4-yl]benzamide], the IC50 in the experiment on human A549 cells is 20.7 nM; at human mPGES-1, 3.1 nM.
`CC(C)(C)OC(=O)N1CCC(n2ncc3c(NC(=O)c4cc(CNC(=O)C(C)(C)C)ccc4Cl)cccc32)CC1` [Example 103, tert-Butyl 4-(4-{[(2-chloro-5-{[(2,2-dimethylpropanoyl)amino]methyl}phenyl)carbonyl]amino}-1H-indazol-1-yl)piperidine-1-carboxylate]: the IC50 with human A549 cells was 4 nM; on human mPGES-1 it was 2.7 nM.
Consider `CC(C)(C)C(=O)NCc1ccc(Cl)c(C(=O)Nc2cccc3c2cnn3C2CCOCC2)c1` [Example 104, 2-Chloro-5-{[(2,2-dimethylpropanoyl)amino]methyl}-N-[1-(tetrahydro-2H-pyran-4-yl)-1H-indazol-4-yl]benzamide], for which the IC50 in the experiment on human A549 cells was found to be 80.6 nM; on human mPGES-1, 99.9 nM.
In the same order, the values of `CC(C)(C)C(=O)NCc1ccc(Cl)c(C(=O)Nc2cccc3c2cnn3CC2CCCCO2)c1` (centres unmarked) [Example 105, 2-Chloro-5-{[(2,2-dimethylpropanoyl)amino]methyl}-N-[1-(tetrahydro-2H-pyran-2-ylmethyl)-1H-indazol-4-yl]benzamide] are 11.1 nM and 1.3 nM.
In the same order, the values of `CC(=O)N1CCC(n2ncc3c(NC(=O)c4cc(CNC(=O)C(C)(C)C)ccc4Cl)cccc32)CC1` [Example 106, N-[1-(1-acetylpiperidin-4-yl)-1H-indazol-4-yl]-2-chloro-5-{[(2,2-dimethylpropanoyl)amino]methyl}benzamide] are 884 nM and 175 nM.
In the same order, the values of `CC(C)(C)C(=O)NCc1ccc(Cl)c(C(=O)Nc2cccc3c2cnn3CCN2CCOCC2)c1` [Example 107, 2-Chloro-5-{[(2,2-dimethylpropanoyl)amino]methyl}-N-{1-[2-(morpholin-4-yl)ethyl]-1H-indazol-4-yl}benzamide hydrochloride] are 399 nM and 10 nM.
As for `CC(C)(C)C(=O)NCc1ccc(Cl)c(C(=O)Nc2cccc3c2cnn3CCCCc2ccccc2)c1` [Example 108, 2-Chloro-5-{[(2,2-dimethylpropanoyl)amino]methyl}-N-[1-(4-phenylbutyl)-1H-indazol-4-yl]benzamide], the IC50 was found to be 20.6 nM in the experiment with human A549 cells and 11.1 nM on human mPGES-1.
In the same order, the values of `O=C(Nc1cccc2c1cnn2Cc1ccccc1)c1cc(CNC(=O)C2CC2)ccc1Cl` [Example 109, N-(1-benzyl-1H-indazol-4-yl)-2-chloro-5-{[(cyclopropylcarbonyl)amino]methyl}benzamide] are 119 nM and 2.04 nM.
Turning to `Cn1ncc2c(NC(=O)c3cc(CNC(=O)C(C)(C)C)ccc3Cl)cccc21` [Example 111, 2-Chloro-5-{[(2,2-dimethylpropanoyl)amino]methyl}-N-(1-methyl-1H-indazol-4-yl)benzamide], the IC50 was 40.6 nM with human A549 cells and 5.5 nM on human mPGES-1.
Turning to `Cn1ncc2c(NC(=O)c3cc(CNC(=O)C4CC4)ccc3Cl)cccc21` [Example 112, 2-Chloro-5-{[(cyclopropylcarbonyl)amino]methyl}-N-(1-methyl-1H-indazol-4-yl)benzamide], the figures for the IC50 in the experiment with human A549 cells and at human mPGES-1 were 91.1 nM and 12.9 nM, respectively.
Regarding `CCn1ncc2c(NC(=O)c3cc(CNC(=O)C(C)(C)C)ccc3Cl)cccc21` [Example 113, 2-Chloro-5-{[(2,2-dimethylpropanoyl)amino]methyl}-N-(1-ethyl-1H-indazol-4-yl)benzamide], the IC50 with human A549 cells turned out to be 20.2 nM; at human mPGES-1 it was 1.2 nM.
For `CC(C)(C)CC(=O)NCc1ccc(Cl)c(C(=O)Nc2cccc3c2cnn3-c2ccc(OC(F)(F)F)cc2)c1` [Example 114, 2-Chloro-5-{[(3,3-dimethylbutanoyl)amino]methyl}-N-{1-[4-(trifluoromethoxy)phenyl]-1H-indazol-4-yl}benzamide], in the experiment with human A549 cells, the IC50 was determined as 1.9 nM. Moreover, testing at 0.01 µM on human mPGES-1 (10 nM test compound) gave an inhibition of 87%.

For the origin of these results see patent US20250059172A1, “INDAZOLE COMPOUND AND PHARMACEUTICAL” (NIPPON SHINYAKU CO., LTD., priority 2021, published 2025).
